In paper PMC5218480 (PLoS ONE, 2017):

Tested on: MV-4-11 cells
Experiment: Gene expression microarray analysis (Affymetrix PrimeView) and GSEA
Type: cell-based, human
Parameters: RFU PODN (11730768_x_at) / Fold change /veh PODN (11730768_x_at) / RFU LINC00158 (11744669_a_at) / Fold change /veh LINC00158 (11744669_a_at) / RFU DUSP10 (11751237_a_at) / Fold change /veh DUSP10 (11751237_a_at) / RFU ID3 (11757404_x_at) / Fold change /veh ID3 (11757404_x_at) / RFU PLEKHG5 (11737974_s_at) / Fold change /veh PLEKHG5 (11737974_s_at) / RFU LRRC4B (11730491_at) / Fold change /veh LRRC4B (11730491_at) / RFU GIMAP4 (11747438_a_at) / Fold change /veh GIMAP4 (11747438_a_at) / RFU KRT8 (11758183_x_at) / Fold change /veh KRT8 (11758183_x_at) / RFU CNN1 (11734310_a_at) / Fold change /veh CNN1 (11734310_a_at) / RFU VPS37D (11726825_at) / Fold change /veh VPS37D (11726825_at) / RFU C10orf10 (11716522_x_at) / Fold change /veh C10orf10 (11716522_x_at) / RFU KIR2DL2 /// KIR2DL4 /// KIR2DL5A /// KIR2DL5B /// KIR2DS1 /// KIR2DS2 /// KIR2DS3 /// KIR2DS4 /// KIR3DL3 /// KIR3DL3 /// KIR3DS1 (11738374_at) / Fold change /veh KIR2DL2 /// KIR2DL4 /// KIR2DL5A /// KIR2DL5B /// KIR2DS1 /// KIR2DS2 /// KIR2DS3 /// KIR2DS4 /// KIR3DL3 /// KIR3DL3 /// KIR3DS1 (11738374_at) / RFU C1QL1 (11718748_at) / Fold change /veh C1QL1 (11718748_at) / RFU TMPRSS4 (11747572_a_at) / Fold change /veh TMPRSS4 (11747572_a_at) / RFU HAMP (11756126_x_at) / Fold change /veh HAMP (11756126_x_at) / RFU RNFT2 (11725882_a_at) / Fold change /veh RNFT2 (11725882_a_at) / RFU NR4A2 (11747474_a_at) / Fold change /veh NR4A2 (11747474_a_at) / RFU ABCC12 (11746883_a_at) / Fold change /veh ABCC12 (11746883_a_at) / RFU TMEM136 (11760407_x_at) / Fold change /veh TMEM136 (11760407_x_at) / RFU CLDN22 /// WWC2 (11732394_at) / Fold change /veh CLDN22 /// WWC2 (11732394_at) / RFU HLA-DPB1 (11760878_x_at) / Fold change /veh HLA-DPB1 (11760878_x_at) / RFU SPINT1 (11716480_a_at) / Fold change /veh SPINT1 (11716480_a_at) / RFU GAP43 (11754022_s_at) / Fold change /veh GAP43 (11754022_s_at) / RFU A4GNT (11735810_at) / Fold change /veh A4GNT (11735810_at) / RFU PRB3 (11715151_x_at) / Fold change /veh PRB3 (11715151_x_at) / RFU TUBB4B (11761932_at) / Fold change /veh TUBB4B (11761932_at) / RFU CAPN14 (11732068_a_at) / Fold change /veh CAPN14 (11732068_a_at) / RFU TMCC2 (11721928_a_at) / Fold change /veh TMCC2 (11721928_a_at) / RFU IRGQ (11745062_a_at) / Fold change /veh IRGQ (11745062_a_at) / RFU FAM174B (11720279_a_at) / Fold change /veh FAM174B (11720279_a_at) / RFU TMPRSS4 (11748680_a_at) / Fold change /veh TMPRSS4 (11748680_a_at) / RFU FAM212B (11763350_a_at) / Fold change /veh FAM212B (11763350_a_at) / RFU PLEKHG5 (11743358_a_at) / Fold change /veh PLEKHG5 (11743358_a_at) / RFU ZSCAN30 (11745921_a_at) / Fold change /veh ZSCAN30 (11745921_a_at) / RFU CMKLR1 (11741424_a_at) / Fold change /veh CMKLR1 (11741424_a_at) / RFU LOC101060620 /// MAPK8IP1 (11723275_at) / Fold change /veh LOC101060620 /// MAPK8IP1 (11723275_at) / RFU SPTSSB (11747773_x_at) / Fold change /veh SPTSSB (11747773_x_at) / RFU PRSS12 (11739890_at) / Fold change /veh PRSS12 (11739890_at) / RFU BIN1 (11741810_x_at) / Fold change /veh BIN1 (11741810_x_at) / RFU WNT11 (11732464_a_at) / Fold change /veh WNT11 (11732464_a_at) / RFU C10orf10 (11716521_a_at) / Fold change /veh C10orf10 (11716521_a_at) / RFU C5orf56 (11738089_at) / Fold change /veh C5orf56 (11738089_at) / RFU CYB561 (11721691_x_at) / Fold change /veh CYB561 (11721691_x_at) / RFU ANKRD19P (11752326_a_at) / Fold change /veh ANKRD19P (11752326_a_at) / RFU OR2T12 /// OR2T33 /// OR2T8 (11738714_s_at) / Fold change /veh OR2T12 /// OR2T33 /// OR2T8 (11738714_s_at) / RFU VCAN (11748164_a_at) / Fold change /veh VCAN (11748164_a_at) / RFU JSRP1 (11732532_at) / Fold change /veh JSRP1 (11732532_at) / RFU KRTAP10-11 (11738290_x_at) / Fold change /veh KRTAP10-11 (11738290_x_at) / RFU MYO3A (11730013_a_at) / Fold change /veh MYO3A (11730013_a_at) / RFU EBF3 (11725865_a_at) / Fold change /veh EBF3 (11725865_a_at) / RFU CAMK2N1 (11719241_x_at) / Fold change /veh CAMK2N1 (11719241_x_at) / RFU C5orf56 (11738088_a_at) / Fold change /veh C5orf56 (11738088_a_at) / RFU OLFML3 (11715873_a_at) / Fold change /veh OLFML3 (11715873_a_at) / RFU LOC100653217 /// NTM (11731650_a_at) / Fold change /veh LOC100653217 /// NTM (11731650_a_at) / RFU MAPK11 (11762145_a_at) / Fold change /veh MAPK11 (11762145_a_at) / RFU FIZ1 (11724087_x_at) / Fold change /veh FIZ1 (11724087_x_at) / RFU OASL (11726364_x_at) / Fold change /veh OASL (11726364_x_at) / RFU SOX15 (11748057_x_at) / Fold change /veh SOX15 (11748057_x_at) / RFU CD79A (11719716_a_at) / Fold change /veh CD79A (11719716_a_at) / RFU HIST1H1D (11736915_at) / Fold change /veh HIST1H1D (11736915_at) / RFU CASKIN2 (11723855_a_at) / Fold change /veh CASKIN2 (11723855_a_at) / RFU LOC730098 (11760151_x_at) / Fold change /veh LOC730098 (11760151_x_at) / RFU OR4N2 (11742367_at) / Fold change /veh OR4N2 (11742367_at) / RFU PRRT2 (11749266_a_at) / Fold change /veh PRRT2 (11749266_a_at) / RFU SNX32 (11753110_a_at) / Fold change /veh SNX32 (11753110_a_at) / RFU CDHR5 (11726645_a_at) / Fold change /veh CDHR5 (11726645_a_at) / RFU RCAN1 (11760418_a_at) / Fold change /veh RCAN1 (11760418_a_at) / RFU FAM167A (11723789_a_at) / Fold change /veh FAM167A (11723789_a_at) / RFU FAM26E (11764081_at) / Fold change /veh FAM26E (11764081_at) / RFU ISYNA1 (11749810_s_at) / Fold change /veh ISYNA1 (11749810_s_at) / RFU ACY1 (11761880_at) / Fold change /veh ACY1 (11761880_at) / RFU 11764098_at / Fold change /veh 11764098_at / RFU SAMD14 (11745864_x_at) / Fold change /veh SAMD14 (11745864_x_at) / RFU NPB (11741838_a_at) / Fold change /veh NPB (11741838_a_at) / RFU TMPRSS6 (11731388_a_at) / Fold change /veh TMPRSS6 (11731388_a_at) / RFU KRTAP10-2 (11738614_at) / Fold change /veh KRTAP10-2 (11738614_at) / RFU ARHGAP8 /// PRR5-ARHGAP8 (11727945_x_at) / Fold change /veh ARHGAP8 /// PRR5-ARHGAP8 (11727945_x_at) / RFU KRTAP5-7 /// NADSYN1 (11734609_at) / Fold change /veh KRTAP5-7 /// NADSYN1 (11734609_at) / RFU RASL12 (11751679_a_at) / Fold change /veh RASL12 (11751679_a_at) / RFU CDKN2B (11736163_a_at) / Fold change /veh CDKN2B (11736163_a_at) / RFU PRF1 (11729649_at) / Fold change /veh PRF1 (11729649_at) / RFU, ZNF638 /// ZNF638-IT1 / Fold change vs veh, ZNF638 /// ZNF638-IT1 / RFU, PANK3 / Fold change vs veh, PANK3 / RFU, SH3YL1 / Fold change vs veh, SH3YL1 / RFU, ZEB2 / Fold change vs veh, ZEB2 / RFU, NRIP1 / Fold change vs veh, NRIP1 / RFU, PTTG1IP / Fold change vs veh, PTTG1IP / RFU, CAPN2 / Fold change vs veh, CAPN2 / RFU, MED14 / Fold change vs veh, MED14 / RFU, SNORA58 / Fold change vs veh, SNORA58 / RFU, C1orf63 / Fold change vs veh, C1orf63 / RFU, LRRFIP1 / Fold change vs veh, LRRFIP1 / RFU, NDUFAF7 / Fold change vs veh, NDUFAF7 / RFU, SLC12A2 / Fold change vs veh, SLC12A2 / RFU, IBTK / Fold change vs veh, IBTK / RFU, ESF1 / Fold change vs veh, ESF1 / Fold change vs veh, TMEM50B / RFU, TAOK1 / Fold change vs veh, TAOK1 / RFU, ACBD3 / Fold change vs veh, ACBD3 / RFU, TMA16 / Fold change vs veh, TMA16 / RFU, RWDD3 / Fold change vs veh, RWDD3 / RFU, BCAT1 / Fold change vs veh, BCAT1 / RFU, EDEM3 / Fold change vs veh, EDEM3 / RFU, TMEM33 / Fold change vs veh, TMEM33 / RFU, WDR75 / Fold change vs veh, WDR75 / RFU, AHCTF1 / Fold change vs veh, AHCTF1 / RFU, TFRC / Fold change vs veh, TFRC / RFU, ZDHHC17 / Fold change vs veh, ZDHHC17 / RFU, NOM1 / Fold change vs veh, NOM1 / RFU, ARL8B / Fold change vs veh, ARL8B / RFU, ZBTB11 / Fold change vs veh, ZBTB11 / RFU, TAMM41 / Fold change vs veh, TAMM41 / RFU, KIAA1704 /// LOC100996395 / Fold change vs veh, KIAA1704 /// LOC100996395 / RFU, ING1 / Fold change vs veh, ING1 / RFU, TRMT61B / Fold change vs veh, TRMT61B / RFU, FUBP3 / Fold change vs veh, FUBP3 / RFU, TP53 / Fold change vs veh, TP53 / RFU, TNKS2 / Fold change vs veh, TNKS2 / RFU, ZFP14 / Fold change vs veh, ZFP14 / RFU, ACTR2 / Fold change vs veh, ACTR2 / RFU, PPP3R1 / Fold change vs veh, PPP3R1 / RFU, PIK3R1 / Fold change vs veh, PIK3R1 / RFU, HNRNPA1 / Fold change vs veh, HNRNPA1 / RFU, RNF170 / Fold change vs veh, RNF170 / RFU, ZNF28 / Fold change vs veh, ZNF28 / RFU, RNGTT / Fold change vs veh, RNGTT / RFU, OGT / Fold change vs veh, OGT / RFU, BRD1 / Fold change vs veh, BRD1 / RFU, MARS / Fold change vs veh, MARS / RFU, ZNF655 / Fold change vs veh, ZNF655 / RFU, FAHD1 / Fold change vs veh, FAHD1 / RFU, BDP1 / Fold change vs veh, BDP1 / RFU, LRRCC1 / Fold change vs veh, LRRCC1 / RFU, ARID1A / Fold change vs veh, ARID1A / RFU, ZNF146 / Fold change vs veh, ZNF146 / RFU, ZNF330 / Fold change vs veh, ZNF330 / RFU, GPN3 / Fold change vs veh, GPN3 / RFU, C9orf123 / Fold change vs veh, C9orf123 / RFU, N4BP2L2 / Fold change vs veh, N4BP2L2 / RFU, ARFIP1 / Fold change vs veh, ARFIP1 / RFU, FAM179B / Fold change vs veh, FAM179B / RFU, BCL10 / Fold change vs veh, BCL10 / RFU, UHRF1BP1L / Fold change vs veh, UHRF1BP1L / RFU, BET1 / Fold change vs veh, BET1 / RFU, CNOT2 / Fold change vs veh, CNOT2 / RFU, ZNF268 / Fold change vs veh, ZNF268 / Fold change vs veh, ZNF507 / RFU, DGCR2 / Fold change vs veh, DGCR2 / RFU, WDSUB1 / Fold change vs veh, WDSUB1 / Fold change vs veh, HSP90B1 /// MIR3652 / RFU, ADSS / Fold change vs veh, ADSS / RFU, GK / Fold change vs veh, GK / RFU, ZNF148 / Fold change vs veh, ZNF148 / RFU, TAF9 / Fold change vs veh, TAF9 / RFU, SLC1A5 / Fold change vs veh, SLC1A5 / RFU, SLMO2 / Fold change vs veh, SLMO2 / RFU, ABCC4 / Fold change vs veh, ABCC4 / RFU, LOC101060439 /// RAP1B / Fold change vs veh, LOC101060439 /// RAP1B / RFU, RFX7 / Fold change vs veh, RFX7 / RFU, GTPBP10 / Fold change vs veh, GTPBP10 / RFU, CNEP1R1 / Fold change vs veh, CNEP1R1 / RFU, BIVM-ERCC5 /// ERCC5 / Fold change vs veh, BIVM-ERCC5 /// ERCC5 / RFU, ILF3 / Fold change vs veh, ILF3 / RFU 11762660_at / Fold change /veh 11762660_at / RFU VCAN (11757783_s_at) / Fold change /veh VCAN (11757783_s_at) / RFU DDX43 (11728927_at) / Fold change /veh DDX43 (11728927_at) / RFU KRT8 (11758188_x_at) / Fold change /veh KRT8 (11758188_x_at) / RFU NKD1 (11759106_at) / Fold change /veh NKD1 (11759106_at) / RFU SRD5A1 (11742802_a_at) / Fold change /veh SRD5A1 (11742802_a_at) / RFU TPSAB1 /// TPSB2 (11721975_s_at) / Fold change /veh TPSAB1 /// TPSB2 (11721975_s_at) / RFU GSTM3 (11746129_a_at) / Fold change /veh GSTM3 (11746129_a_at) / RFU IL23R (11737362_x_at) / Fold change /veh IL23R (11737362_x_at) / RFU TMEM51 (11727254_a_at) / Fold change /veh TMEM51 (11727254_a_at) / RFU PIWIL2 (11732686_x_at) / Fold change /veh PIWIL2 (11732686_x_at) / RFU ORM1 (11744905_x_at) / Fold change /veh ORM1 (11744905_x_at) / RFU CCDC152 (11743942_at) / Fold change /veh CCDC152 (11743942_at) / RFU ECM1 (11717891_a_at) / Fold change /veh ECM1 (11717891_a_at) / RFU IL23R (11748794_a_at) / Fold change /veh IL23R (11748794_a_at) / RFU TNFAIP8L3 (11732012_x_at) / Fold change /veh TNFAIP8L3 (11732012_x_at) / RFU MBOAT4 (11741988_at) / Fold change /veh MBOAT4 (11741988_at) / RFU 11764193_at / Fold change /veh 11764193_at / RFU TMEM53 (11763286_at) / Fold change /veh TMEM53 (11763286_at) / RFU MAGEB2 (11727129_at) / Fold change /veh MAGEB2 (11727129_at) / RFU TMEM200A (11744735_a_at) / Fold change /veh TMEM200A (11744735_a_at) / RFU CCDC152 (11751479_a_at) / Fold change /veh CCDC152 (11751479_a_at) / RFU FAM211A (11726209_a_at) / Fold change /veh FAM211A (11726209_a_at) / RFU RGS16 (11746705_a_at) / Fold change /veh RGS16 (11746705_a_at) / RFU VCAN (11755009_s_at) / Fold change /veh VCAN (11755009_s_at) / RFU RHOB (11743442_s_at) / Fold change /veh RHOB (11743442_s_at) / RFU RGS16 (11720943_a_at) / Fold change /veh RGS16 (11720943_a_at) / RFU RGS16 (11720944_at) / Fold change /veh RGS16 (11720944_at) / RFU, VPS4B / Fold change vs veh, VPS4B / RFU, CREB1 / Fold change vs veh, CREB1 / RFU, DNAJC13 / Fold change vs veh, DNAJC13 / RFU, GNAQ / Fold change vs veh, GNAQ / RFU, CDK5R1 / Fold change vs veh, CDK5R1 / RFU, ZRANB3 / Fold change vs veh, ZRANB3 / RFU, CUL4A / Fold change vs veh, CUL4A / RFU, CCNY / Fold change vs veh, CCNY / RFU, UFL1 / Fold change vs veh, UFL1 / RFU, COG3 / Fold change vs veh, COG3 / RFU, DIAPH2 / Fold change vs veh, DIAPH2 / RFU, SKA2 / Fold change vs veh, SKA2 / RFU, AFF3 / Fold change vs veh, AFF3 / RFU, LMF1 / Fold change vs veh, LMF1 / RFU, IPO11 / Fold change vs veh, IPO11 / RFU, DFFB / Fold change vs veh, DFFB / RFU, FOXP1 / Fold change vs veh, FOXP1 / RFU, CARD8 / Fold change vs veh, CARD8 / RFU, STRN3 / Fold change vs veh, STRN3 / RFU, ADK / Fold change vs veh, ADK / RFU, RASSF2 / Fold change vs veh, RASSF2 / RFU, WIPF1 / Fold change vs veh, WIPF1 / RFU, LARP1B / Fold change vs veh, LARP1B / RFU, RASA1 / Fold change vs veh, RASA1 / RFU, RB1 / Fold change vs veh, RB1 / RFU, PPFIA1 / Fold change vs veh, PPFIA1 / RFU, MAT2A / Fold change vs veh, MAT2A / RFU, CCT5 / Fold change vs veh, CCT5 / RFU, WDR92 / Fold change vs veh, WDR92 / RFU, CUX1 / Fold change vs veh, CUX1 / RFU, TTC7A / Fold change vs veh, TTC7A / RFU, TMEM135 / Fold change vs veh, TMEM135 / RFU, DEPTOR / Fold change vs veh, DEPTOR / RFU, CPM / Fold change vs veh, CPM / RFU, DNAJB6 / Fold change vs veh, DNAJB6 / RFU, CACNA2D3 / Fold change vs veh, CACNA2D3 / RFU, DTX4 / Fold change vs veh, DTX4 / RFU, TFCP2 / Fold change vs veh, TFCP2 / RFU, GMCL1 /// GMCL1P1 / Fold change vs veh, GMCL1 /// GMCL1P1 / RFU, AEBP2 / Fold change vs veh, AEBP2 / RFU, SNHG1 /// SNORD22 /// SNORD25 /// SNORD26 /// SNORD27 /// SNORD28 /// SNORD29 /// SNORD31 / Fold change vs veh, SNHG1 /// SNORD22 /// SNORD25 /// SNORD26 /// SNORD27 /// SNORD28 /// SNORD29 /// SNORD31 / Fold change (Aza/veh), C12orf56 (ProbeSet 11735607_a_at) / Fold change (ACY-1035/veh), C12orf56 (ProbeSet 11735607_a_at) / Fold change (Aza/veh), FGFR1OP (ProbeSet 11751329_s_at) / Fold change (ACY-1035/veh), FGFR1OP (ProbeSet 11751329_s_at) / Fold change (Aza/veh), VPS36 (ProbeSet 11739960_a_at) / Fold change (ACY-1035/veh), VPS36 (ProbeSet 11739960_a_at) / RFU SYPL1 (11715823_x_at) / Fold change /veh SYPL1 (11715823_x_at) / RFU IGFBP7 (11715501_s_at) / Fold change /veh IGFBP7 (11715501_s_at) / RFU REEP3 (11722064_at) / Fold change /veh REEP3 (11722064_at) / RFU IGLL1 (11728026_x_at) / Fold change /veh IGLL1 (11728026_x_at): dose or concentration left out as unconfirmed
Conditions: ProbeSet 11743286_at; LIST D

## Nc1ccc(-c2cccs2)cc1NC(=O)c1ccc2c(c1)cc(C1CC1)n2CCN1CCOCC1 [ACY-1035]
  Fold change vs veh, DTX4: 0.97
